How the values were obtained:
Axl = Axl (Homo sapiens (Human), UniProt P30530); assay: Axl kinase inhibition assay (Cisbio method, Eu-labeled antibody to phosphorylated peptide); conditions: read-out: IC50 (μM) Axl; 1 hour reaction with substrate peptide and ATP
Protocol: (§1) For evaluation of inhibitory activities of the compounds according to the present invention on Tyro 3, Axl, and Mer, the following test was carried out.
(§2) The specific test method followed the method provided by Cisbio. The compounds of the examples were prepared at various concentrations, followed by addition of Tyro 3, Axl, or Mer and substrate peptides, and then ATP was added to initiate a reaction. After 1 hour, the reaction was stopped by addition of a solution containing EDTA. Thereafter, the amount of phosphorylated peptides was measured. Here, the phosphorylated peptides were treated with an europium (Eu)-labeled antibody recognizing phosphorylated peptides, and then after 1 hour, excited by irradiation of the light of a wavelength of 320 or 340 nm using an Envision Reader.

Tyro 3 = Tyro 3 (Homo sapiens (Human), UniProt Q06418); assay: Tyro 3 kinase inhibition assay (Cisbio method, Eu-labeled antibody to phosphorylated peptide); conditions: read-out: IC50 (μM) Tyro 3; 1 hour reaction with substrate peptide and ATP
Protocol: as §1, §2

Mer = Mer (Homo sapiens (Human), UniProt Q12866); assay: Mer kinase inhibition assay (Cisbio method, Eu-labeled antibody to phosphorylated peptide); conditions: read-out: IC50 (μM) Mer; 1 hour reaction with substrate peptide and ATP
Sequence of Mer (Q12866 21-999): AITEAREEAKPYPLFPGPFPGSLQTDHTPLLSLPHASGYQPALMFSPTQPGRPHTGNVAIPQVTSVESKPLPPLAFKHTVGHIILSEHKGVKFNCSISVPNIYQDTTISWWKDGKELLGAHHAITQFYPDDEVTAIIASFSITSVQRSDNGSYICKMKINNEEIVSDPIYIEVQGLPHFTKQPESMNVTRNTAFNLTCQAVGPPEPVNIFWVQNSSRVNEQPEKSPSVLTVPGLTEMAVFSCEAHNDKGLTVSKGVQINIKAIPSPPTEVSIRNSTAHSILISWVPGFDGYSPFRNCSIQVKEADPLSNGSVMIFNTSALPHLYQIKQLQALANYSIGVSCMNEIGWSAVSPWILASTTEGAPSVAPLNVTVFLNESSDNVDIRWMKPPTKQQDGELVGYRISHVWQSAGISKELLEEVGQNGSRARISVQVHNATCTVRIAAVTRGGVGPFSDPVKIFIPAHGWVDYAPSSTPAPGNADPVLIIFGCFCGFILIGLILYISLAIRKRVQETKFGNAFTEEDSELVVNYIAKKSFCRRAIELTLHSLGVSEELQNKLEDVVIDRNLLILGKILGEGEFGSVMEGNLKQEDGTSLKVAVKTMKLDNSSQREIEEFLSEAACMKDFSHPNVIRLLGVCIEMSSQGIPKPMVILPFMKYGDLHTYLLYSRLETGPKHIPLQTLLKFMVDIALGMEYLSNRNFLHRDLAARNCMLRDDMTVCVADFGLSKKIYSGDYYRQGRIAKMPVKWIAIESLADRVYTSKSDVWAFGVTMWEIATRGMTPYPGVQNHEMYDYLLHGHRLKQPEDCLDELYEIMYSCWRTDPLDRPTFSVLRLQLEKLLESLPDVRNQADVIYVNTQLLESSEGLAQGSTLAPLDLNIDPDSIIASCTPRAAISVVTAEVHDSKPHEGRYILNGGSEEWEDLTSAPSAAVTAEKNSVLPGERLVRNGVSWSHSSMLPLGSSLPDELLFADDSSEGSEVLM
Protocol: as §1, §2

Sequence of Axl (P30530 26-894): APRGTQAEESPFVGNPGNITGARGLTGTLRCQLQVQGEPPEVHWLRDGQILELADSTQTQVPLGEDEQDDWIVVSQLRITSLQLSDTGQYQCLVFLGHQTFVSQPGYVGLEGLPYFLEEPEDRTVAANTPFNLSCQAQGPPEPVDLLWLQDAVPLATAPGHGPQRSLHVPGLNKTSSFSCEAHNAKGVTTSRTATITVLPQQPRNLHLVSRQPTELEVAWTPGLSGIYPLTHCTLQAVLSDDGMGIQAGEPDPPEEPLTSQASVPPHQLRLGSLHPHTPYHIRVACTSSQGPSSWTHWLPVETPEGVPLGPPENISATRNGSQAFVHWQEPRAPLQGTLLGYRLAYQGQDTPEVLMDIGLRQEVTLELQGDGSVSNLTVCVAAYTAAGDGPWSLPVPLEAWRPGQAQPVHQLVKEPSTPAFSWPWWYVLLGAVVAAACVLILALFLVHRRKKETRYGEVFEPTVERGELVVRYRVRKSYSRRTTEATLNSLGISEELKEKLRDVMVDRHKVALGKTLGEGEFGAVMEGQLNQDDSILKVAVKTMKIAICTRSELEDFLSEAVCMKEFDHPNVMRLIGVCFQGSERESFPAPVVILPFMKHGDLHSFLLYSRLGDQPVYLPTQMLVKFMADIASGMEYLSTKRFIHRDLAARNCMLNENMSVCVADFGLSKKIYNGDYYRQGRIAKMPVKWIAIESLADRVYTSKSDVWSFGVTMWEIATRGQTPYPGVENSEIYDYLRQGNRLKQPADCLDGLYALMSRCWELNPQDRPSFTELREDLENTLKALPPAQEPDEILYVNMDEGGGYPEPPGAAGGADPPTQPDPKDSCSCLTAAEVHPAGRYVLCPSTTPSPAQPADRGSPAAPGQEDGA
Sequence of Tyro 3 (Q06418 41-890): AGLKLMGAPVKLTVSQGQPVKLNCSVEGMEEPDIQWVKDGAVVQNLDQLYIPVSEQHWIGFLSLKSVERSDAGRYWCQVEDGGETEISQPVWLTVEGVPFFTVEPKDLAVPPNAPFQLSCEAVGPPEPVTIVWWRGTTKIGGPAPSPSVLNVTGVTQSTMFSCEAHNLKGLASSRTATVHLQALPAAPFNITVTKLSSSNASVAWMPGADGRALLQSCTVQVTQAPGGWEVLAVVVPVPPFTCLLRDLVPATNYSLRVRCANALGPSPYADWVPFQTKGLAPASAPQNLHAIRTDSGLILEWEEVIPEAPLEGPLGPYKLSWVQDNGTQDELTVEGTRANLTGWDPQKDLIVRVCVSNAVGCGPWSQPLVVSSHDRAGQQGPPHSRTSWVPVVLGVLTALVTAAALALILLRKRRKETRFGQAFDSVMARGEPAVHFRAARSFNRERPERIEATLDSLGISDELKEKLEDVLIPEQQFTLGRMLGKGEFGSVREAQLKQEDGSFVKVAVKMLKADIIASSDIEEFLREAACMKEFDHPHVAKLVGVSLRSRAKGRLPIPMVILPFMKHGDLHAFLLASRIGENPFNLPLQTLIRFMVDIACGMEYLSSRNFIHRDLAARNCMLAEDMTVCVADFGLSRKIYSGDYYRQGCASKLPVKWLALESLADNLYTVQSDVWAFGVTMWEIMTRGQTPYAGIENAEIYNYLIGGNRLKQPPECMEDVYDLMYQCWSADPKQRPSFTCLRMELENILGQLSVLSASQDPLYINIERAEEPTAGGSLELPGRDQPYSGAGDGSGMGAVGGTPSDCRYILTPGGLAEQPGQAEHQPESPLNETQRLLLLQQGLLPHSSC

| IC50 (Axl) | IC50 (Tyro 3) | IC50 (Mer) | Compound |
| --- | --- | --- | --- |
| > 10 µM | > 10 µM | > 10 µM | Cc1ccc(Nc2ncc(Br)c(NC3CCCCC3)n2)cc1 [Compound 1, 5-bromo-N4-cyclohexyl-N2-(p-tolyl)pyrimidine-2,4-diamine] |
| – | > 10 µM | > 10 µM | Cn1cc(-c2cnc(Cl)nc2NC2CCCCC2)cn1 [Compound 4, 2-chloro-N4-cyclohexyl-5-(1-methyl-1H-pyrazol-4-yl)pyrimidine-4-amine] |
| > 10 µM | – | > 2 µM | Cn1cc(-c2cnc(Nc3cc(Cl)cc(Cl)c3)nc2NC2CCCCC2)cn1 [Compound 5, N4-cyclohexyl-N2-(3,5-dichlorophenyl)-5-(1-methyl-1H-pyrazol-4-yl)pyrimidine-2,4-diamine] |
| > 10 µM | 6.2e-06 µM | – | Cn1cc(-c2cnc(Nc3cc(C(F)(F)F)cc(C(F)(F)F)c3)nc2Nc2ccc3c(c2)CN(C(=O)C(F)(F)F)CC3)cn1 [Compound 139, 1-(7-(2-(3,5-bis(trifluoromethyl)phenylamino)-5-(1-methyl-1H-pyrazol-4-yl)pyrimidin-4-ylamino)-3,4-dihydroisoquinolin-2(1H)-yl)-2,2,2-trifluoroethan-1-one] |
